# Test results as given in patent publication US20240374631A1, “A COMPOSITION FOR IMPROVING GUT MICROBIOTA, BEHAVIOURAL PATTERN, ALPHA-SYNUCLEIN LEVELS, SLEEP PATTERN AND/OR SERUM MELATONIN” (GN Corporation Co Ltd, priority 2021, published 2024).
# Tested on: gut microbiota
# Test: Gut microbiome analysis (16S rRNA sequencing of fecal samples) in STAM model of NASH
# Assay type: in vivo, C57BL/6J mice
# Conditions: post-intervention
# Excerpt: The study is reported in accordance with Animal Research: Reporting of In Vivo Experiments (ARRIVE) guidelines. C57BL/6J mice were obtained from Japan SLC, Inc. (Japan). All animals used in this study were cared for under the following guidelines: Act on Welfare and Management of Animals (Ministry of the Environment, Japan, Act No. 105 of Oct. 1, 1973), standards relating to the care and management of laboratory animals and relief of pain (Notice No. 88 of the Ministry of the Environment, Japan, Apr. 28, 2006) and the guidelines for proper conduct of animal experiments (Science Council of Japan, Jun. 1, 2006). Protocol approvals were obtained from SMC Laboratories, Japan's IACUC (Study reference no: […] Mice were maintained in a specific pathogen-free (SPF) facility under controlled conditions of temperature (23±3° C.), humidity (50±20%), lighting (12-hour artificial light and dark cycles; light from 8:00 to 20:00) and air exchange. The STAM model of NASH was induced as previously described [D10]. Mice were given a single subcutaneous injection of 200 μg streptozotocin (STZ, Sigma-Aldrich, USA) solution 2 days after birth and fed with a high-fat diet (HFD, 57 kcal % fat, Cat #HFD32, CLEA Japan, Inc., Japan) from 4-9 weeks of age. All mice develop liver steatosis and diabetes and at […] mice had established steatohepatitis, histologically. Studygroups: There were five study groups, described below. Eight mice were included in each study group. Eight NASH mice were orally administered vehicle supplemented with AFO-202 Beta Glucan at a dose of 1 mg/kg in a volume of 5 mL/kg once daily from 6 to 9 weeks of age. Eight NASH mice were orally administered vehicle supplemented with Telmisartan at a dose of 10 mg/kg once daily from 6 to 9 weeks of age. Frequency: Fecal samples were collected at the 6 weeks of age (before administration) and 9 weeks of age (before sacrifice). Procedure: At 6 weeks of age, fecal samples were collected from each mouse by clean catch method. […] A sterile petri dish was placed on the bench. Gently massage the abdomen, position the bottom of mouse over a fresh petri dish, and collect 1-2 fecal pellets. At sacrifice, fecal samples were aseptically collected from cecum. The tubes with feces were placed on ice immediately. These tubes were snap frozen in liquid nitrogen and stored at -80° C. for shipping. In this analysis, the 16S rRNA sequence data acquired by the next-generation sequencer from the fecal […] was used to perform community analysis using the QIIME2 program for microbial community analysis. The raw read data in FASTQ format output from the next-generation sequencer was trimmed to remove adapter sequences and low QV regions that may be included in the data. Cutadapt was used to remove adapter sequences from DNA sequencing reads. Trimmomatic was used as read trimming tool for Illumina NGS data. The adapter sequence was trimmed using the adapter trimming program “cutadapt” if the Trimming of the region at the end of the read sequence overlapped the corresponding sequence by at least one base (mismatch tolerance: 20%). When reads containing N were present in at least one of Read1 and Read2, both Read1 and Read2 were removed. Trimming of low QV regions was performed on the read data after processing using the QV trimming program “Trimmomatic” under the following conditions. The window of 20 bases is slid from the 5' side, and the area where the average QV is less than 20 is trimmed. After trimming, only the reads with more than 50 bases remaining in both Read1 and Read2 were taken as output. The microbial community analysis based on 16S rRNA sequence was performed on the sequence data trimmed in the previous section using the microbial community analysis program “QIIME2”. The annotation program “sklearn” included in QIIME2 is used to annotate the ASV (OTU) sequences. […]
compound,measurement,setting,value
CCCc1nc2c(C)cc(-c3nc4ccccc4n3C)cc2n1Cc1ccc(-c2ccccc2C(=O)O)cc1 [Telmisartan],"Abundance: Ruminococcaceae, Oscillospira, —",line r190,135
same,"Abundance: Ruminococcaceae, Oscillospira, —",line r191,53
same,"Abundance: Lachnospiraceae, [Ruminococcus], gnavus",line r192,87
same,"Abundance: Ruminococcaceae, Oscillospira, —",line r193,42
same,"Abundance: Lactobacillaceae, Lactobaccilus, reuteri",line r194,0
same,"Abundance: Coriobacteriaceae, Adlercreutzia, —",line r195,0
same,"Abundance: Lachnospiraceae, —, —",line r196,0
same,"Abundance: S24-7, —, —",line r197,49
same,"Abundance: Turicibacteraceae, Turicibacter, —",line r198,0
same,"Abundance: S24-7, —, —",line r199,41
same,"Abundance: Rikenellaceae, —, —",line r200,86
same,"Abundance: Enterobacteriaceae, Other, Other",line r201,0
same,"Abundance: Rikenellaceae, Other, Other",line r202,53
same,"Abundance: Lactobacillaceae, Lactobaccilus, Other",line r204,0
same,"Abundance: —, —, —",line r205,0
same,"Abundance: S24-7, —, —",line r206,45
same,"Abundance: S24-7, —, —",line r207,109
same,"Abundance: —, —, —",line r208,19
same,"Abundance: Enterobacteriaceae, Klebsiella, Other",line r209,0
same,"Abundance: —, —, —",line r210,3
same,"Abundance: Lachnospiraceae, Other, Other",line r211,137
same,"Abundance: Ruminococcaceae, Oscillospira, —",line r212,0
same,"Abundance: Ruminococcaceae, Oscillospira, —",line r213,65
same,"Abundance: Bacteroidaceae, Bacteroides, acidifaciens",line r214,35
same,"Abundance: Erysipelotrichaceae, —, —",line r215,0
same,"Abundance: Lachnospiraceae, Dorea, —",line r216,74
same,"Abundance: Enterobacteriaceae, Enterobacter, Other",line r217,41
same,"Abundance: Ruminococcaceae, Oscillospira, —",line r218,45
same,"Abundance: Ruminococcaceae, Other, Other",line r219,12
same,"Abundance: Ruminococcaceae, Oscillospira, —",line r220,184
same,"Abundance: Rikenellaceae, —, —",line r221,43
same,"Abundance: —, —, —",line r222,79
same,"Abundance: Lachnospiraceae, Other, Other",line r223,273
same,"Abundance: Other, Other, Other",line r224,87
same,"Abundance: Ruminococcaceae, Oscillospira, —",line r225,72
same,"Abundance: S24-7, —, —",line r226,85
same,"Abundance: Lachnospiraceae, —, —",line r227,0
same,"Abundance: Streptococcaceae, Staphylococcus, —",line r228,27
same,"Abundance: —, —, —",line r229,0
same,"Abundance: —, —, —",line r230,0
same,"Abundance: —, —, —",line r231,101
same,"Abundance: Other, Other, Other",line r232,71
same,"Abundance: Aerococcaceae, Aerococcus, —",line r233,187
same,"Abundance: Ruminococcaceae, —, —",line r234,0
same,"Abundance: —, —, —",line r235,108
same,"Abundance: Ruminococcaceae, Oscillospira, —",line r237,26
same,"Abundance: —, —, —",line r238,51
same,"Abundance: Ruminococcaceae, Ruminococcus, —",line r239,43
same,"Abundance: —, —, —",line r240,266
same,"Abundance: Other, Other, Other",line r241,48
same,"Abundance: Ruminococcaceae, Oscillospira, —",line r242,0
same,"Abundance: Lachnospiraceae, [Ruminococcus], gnavus",line r243,95
same,"Abundance: Lachnospiraceae, —, —",line r244,0
same,"Abundance: Other, Other, Other",line r245,45
same,"Abundance: Ruminococcaceae, Oscillospira, —",line r246,23
same,"Abundance: —, —, —",line r247,90
same,"Abundance: Other, Other, Other",line r248,11
same,"Abundance: Other, Other, Other",line r249,53
same,"Abundance: Other, Other, Other",line r250,57
same,"Abundance: Lachnospiraceae, Clostridium, Other",line r251,101
same,"Abundance: Lachnospiraceae, —, —",line r252,23
same,"Abundance: Other, Other, Other",line r253,0
same,"Abundance: Other, Other, Other",line r254,51
same,"Abundance: Ruminococcaceae, Oscillospira, —",line r255,38
same,"Abundance: Desulfovibrionaceae, —, —",line r256,42
same,"Abundance: Dehalobacteriaceae, Dehalobacterium, —",line r257,0
same,"Abundance: Ruminococcaceae, Ruminococcus, —",line r259,22
same,"Abundance: Lachnospiraceae, Coprococcus, —",line r260,46
same,"Abundance: Ruminococcaceae, Oscillospira, —",line r261,77
same,"Abundance: Other, Other, Other",line r262,38
same,"Abundance: Lachnospiraceae, Coprococcus, —",line r263,49
same,"Abundance: Ruminococcaceae, Oscillospira, —",line r264,0
same,"Abundance: Christensenellaceae, —, —",line r265,9
same,"Abundance: S24-7, —, —",line r266,8
same,"Abundance: Ruminococcaceae, Oscillospira, —",line r267,0
same,"Abundance: Lachnospiraceae, Coprococcus, —",line r268,29
same,"Abundance: Lachnospiraceae, Other, Other",line r269,0
same,"Abundance: Erysipelotrichaceae, Clostridium, cocleatum",line r271,34
same,"Abundance: —, —, —",line r272,0
same,"Abundance: Desulfovibrionaceae, Bilophila, —",line r273,17
same,"Abundance: —, —, —",line r274,0
same,"Abundance: Corynebacteriaceae, Corynebacterium, stationis",line r275,0
same,"Abundance: Lachnospiraceae, Other, Other",line r276,34
same,"Abundance: Lachnospiraceae, Other, Other",line r277,82
same,"Abundance: Lachnospiraceae, —, —",line r278,10
same,"Abundance: Lachnospiraceae, —, —",line r279,0
same,"Abundance: —, —, —",line r280,0
same,"Abundance: —, —, —",line r281,84
same,"Abundance: —, —, —",line r282,0
same,"Abundance: Ruminococcaceae, —, —",line r283,0
same,"Abundance: —, —, —",line r284,0
same,"Abundance: Lachnospiraceae, —, —",line r285,0
same,"Abundance: Dehalobacteriaceae, Dehalobacterium, —",line r286,43
same,"Abundance: Other, Other, Other",line r287,68
same,"Abundance: Streptococcaceae, Streptococcus, luteciae",line r288,0
same,"Abundance: —, —, —",line r289,0
same,"Abundance: S24-7, —, —",line r290,36
same,"Abundance: Ruminococcaceae, Ruminococcus, —",line r292,0
same,"Abundance: Lachnospiraceae, Clostridium, Other",line r293,0
same,"Abundance: —, —, —",line r294,10
same,"Abundance: Ruminococcaceae, Oscillospira, —",line r295,22
same,"Abundance: Lachnospiraceae, Coprococcus, —",line r296,30
same,"Abundance: —, —, —",line r297,0
